Data: paper PMC9572860, “Antiprotozoal Activity of Azabicyclo-Nonanes Linked to Tetrazole or Sulfonamide Cores” (Molecules, 2022)
Read-outs that look alike come from different tables or passages of the source.

Experiments:
[1] = tested on: P. falciparum K1; set-up: method as in doi:10.1007/s00706-007-0634-1; conditions: cited from earlier work; for IC50: K1 strain resistant to chloroquine and pyrimethamine; for S.I. = IC50 (Cyt.)/IC50 (P.f. K1): L-6 cytotoxicity over P.f. K1
[2] = tested on: T. b. rhodesiense STIB 900; set-up: method as in doi:10.1007/s00706-007-0634-1; conditions: cited from earlier work; for S.I. = IC50 (Cyt.)/IC50 (T.b.r.): L-6 cytotoxicity over T.b.r.; for IC50: read-out: T. Brucei Rhodesiense IC50
[3] = tested on: L-6 cells; set-up: method as in doi:10.1007/s00706-007-0634-1; conditions: rat skeletal myoblasts; read-out: Cytotox. L-6 Cells IC50; cited from earlier work
[4] = tested on: P. falciparum K1; experiment: In vitro microplate 3H-hypoxanthine incorporation assay against P. falciparum K1; format: cell-based, Plasmodium falciparum; conditions: for S.I. = IC50 (Cyt.)/IC50 (P.f. K1): L-6 cytotoxicity over P.f. K1; for IC50: Plasmodium falciparum
Method: (§1) Compounds were tested for their activities against strains of P. falciparum and T. b. rhodesiense via microplate assays. Their cytotoxicity was determined with rat skeletal myoblasts (L-6 cells). Chloroquine and melarsoprol served as standards (Table 1).
(§2) In vitro activity against erythrocytic stages of P. falciparum was determined using a ^3H-hypoxanthine incorporation assay, using the drug-sensitive NF54 strain [21] or the chloroquine- and pyrimethamine-resistant K1 strain [22]. Compounds were dissolved in DMSO at 10 mg/mL and added to parasite cultures incubated in RPMI 1640 medium without hypoxanthine, supplemented with HEPES (5.94 g/L), NaHCO3 (2.1 g/L), neomycin (100 U/mL), Albumax (5 g/L) and washed human red cells A+ at 2.5% hematocrit (0.3% parasitemia). Serial drug dilutions of 11 three-fold dilution steps covering a range from 100 to 0.002 µg/mL were prepared. The 96-well plates were incubated in a humidified atmosphere at 37 °C; 4% CO2, 3% O2, 93% N2. After 48 h, 0.05 mL of ^3H-hypoxanthine (=0.5 µCi) was added to each well of the plate. The plates were incubated for an additional 24 h under the same conditions. The plates were then harvested with a Betaplate cell harvester (Wallac, Zurich, Switzerland). The red blood cells were transferred onto a glass fiber filter and washed with distilled water. The dried filters were inserted into a plastic foil with 10 mL of scintillation fluid and counted in a Betaplate liquid scintillation counter (Wallac, Zurich, Switzerland). IC50 values were calculated from sigmoidal inhibition curves by linear regression using Microsoft Excel. Chloroquine (Sigma C6628) was used as control.

[5] = tested on: T. b. rhodesiense STIB 900; experiment: In vitro microplate resazurin assay against T. brucei rhodesiense; format: cell-based, Trypanosoma brucei rhodesiense; conditions: for S.I. = IC50 (Cyt.)/IC50 (T.b.r.): L-6 cytotoxicity over T.b.r.; for IC50: Trypanosoma brucei, STIB 900 bloodstream forms, average of four determinations, read-out: T. Brucei Rhodesiense IC50
Method: as §1
Minimum essential medium (50 µL) supplemented with 25 mM HEPES, 1 g/L additional glucose, 1% MEM nonessential amino acids (100×), 0.2 mM 2-mercaptoethanol, 1 mM Na-pyruvate and 15% heat inactivated horse serum was added to each well of a 96-well microtiter plate. Serial drug dilutions of 11 three-fold dilution steps covering a range from 100 to 0.002 μg/mL were prepared. Then, 4 × 10^3 bloodstream forms of T. b. rhodesiense STIB 900 in 50 µL was added to each well and the plate incubated at 37 °C under a 5% CO2 atmosphere for 70 h. Ten microliters of resazurin solution (resazurin, 12.5 mg in 100 mL double-distilled water) was then added to each well and incubation continued for an additional 2–4 h. The plates were then read with a Spectramax Gemini XS microplate fluorometer (Molecular Devices Cooperation, Sunnyvale, CA, USA) using an excitation wavelength of 536 nm and an emission wavelength of 588 nm. Data were analyzed with the graphic program Softmax Pro (Molecular Devices Cooperation, Sunnyvale, CA, USA), which calculated IC50 values by linear regression and 4-parameter logistic regression from the sigmoidal dose inhibition curves. Melarsoprol (Arsobal Sanofi-Aventis, received from WHO) was used as control.

[6] = In vitro cytotoxicity with L-6 cells; format: cell-based, rat
Method: as §1
(§3) Assays were performed in 96-well microtiter plates, each well containing 0.1 mL of RPMI 1640 medium supplemented with 1% L-glutamine (200 mM) and 10% fetal bovine serum and 4000 L-6 cells (a primary cell line derived from rat skeletal myoblasts, ATCC CRL-1458™). Serial drug dilutions of 11 three-fold dilution steps covering a range from 100 to 0.002 μg/mL were prepared. After 70 h of incubation, the plates were inspected under an inverted microscope to assure the growth of the controls and sterile conditions. Then, 0.01 mL resazurin solution (resazurin, 12.5 mg in 100 ml double-distilled water) was added to each well and the plates incubated for another 2 h. The plates were read with a Spectramax Gemini XS microplate fluorometer (Molecular Devices Cooperation, Sunnyvale, CA, USA) using an excitation wavelength of 536 nm and an emission wavelength of 588 nm. The IC50 values were calculated by linear regression from the sigmoidal dose inhibition curves using SoftmaxPro software (Molecular Devices Cooperation, Sunnyvale, CA, USA). Podophyllotoxin (Sigma P4405) was used as control.

[7] = tested on: P. falciparum NF54; experiment: In vitro microplate 3H-hypoxanthine incorporation assay against P. falciparum NF54; format: cell-based, Plasmodium falciparum
Method: as §1, §2

[8] = tested on: L-6 cells; experiment: In vitro cytotoxicity with L-6 cells; format: cell-based, rat; conditions: rat skeletal myoblasts; average of four determinations; read-out: Cytotox. L-6 Cells IC50
Method: as §1, §3

[9] = K1 strain resistant to chloroquine and pyrimethamine, average of four determinations, read-out: P. Falciparum K1 IC50

| Compound | IC50 [1] [nM] | S.I. = IC50 (Cyt.)/IC50 (P.f. K1) [1] | S.I. = IC50 (Cyt.)/IC50 (T.b.r.) [2] | IC50 [2] [nM] | IC50 [3] [nM] | S.I. = IC50 (Cyt.)/IC50 (P.f. K1) [4] | IC50 [4, 9] [nM] | S.I. = IC50 (Cyt.)/IC50 (T.b.r.) [5] | IC50 [5] [nM] | IC50 at 72 h ([6]; rat) [nM] | further results |
| --- | --- | --- | --- | --- | --- | --- | --- | --- | --- | --- | --- |
| Cc1ccc(S(=O)(=O)N2CCC3(N4CCCC4)CC(c4ccccc4)C2C(c2ccccc2)C3)cc1 (centres unmarked) [Compound 17] | 1300 | 7.25 | 7.48 | 1260 | 9420 | – | – | – | – | – | – |
| NCCN1CCC2(N3CCCC3)C[C@H](c3ccccc3)C1[C@@H](c1ccccc1)C2 (racemic) [Compound 8, rac-(7R,8R)-2-[7,8-Diphenyl-5-(pyrrolidin-1-yl)-2-azabicyclo[3.2.2]nonan-2-yl]ethan-1-amine] | – | – | – | – | – | 47.8 | 540 | 22.8 | 1130 | 25800 | – |
| CCN(CC)CCCC(C)Nc1ccnc2cc(Cl)ccc12 (centres unmarked) [CQ, chloroquine, reference compound] | – | – | – | – | – | 606 | – | – | – | – | S.I. = IC50 (Cyt.)/IC50 (P.f. NF54) ([7]; L-6 cytotoxicity over P.f. NF54): 23308; IC50 ([7]; Plasmodium falciparum, NF54, read-out: P. Falciparum NF54 IC50): 3.9 nM; IC50 ([4]; K1, read-out: P. Falciparum K1 IC50): 150 nM; IC50 at 72 h ([6]; rat skeletal myoblasts, average of four determinations, read-out: Cytotox. L-6 Cells IC50): 90900 nM |
| Cc1ccc(S(=O)(=O)N2CCC3(N4CCCCC4)CC(c4ccccc4)C2C(c2ccccc2)C3)cc1 (centres unmarked) [Compound 16] | 1260 | 8.33 | 3.96 | 2650 | 10500 | – | – | – | – | – | – |
| COc1cc([C@@H]2c3cc4c(cc3[C@H](O)[C@H]3COC(=O)[C@H]23)OCO4)cc(OC)c1OC [POD, podophyllotoxin, reference compound] | – | – | – | – | – | – | – | – | – | – | IC50 [8]: 12 nM |
| NCCN1CCC2(N3CCCCC3)C[C@H](c3ccccc3)C1[C@@H](c1ccccc1)C2 (racemic) [Compound 7, rac-(7R,8R)-2-[7,8-Diphenyl-5-(piperidin-1-yl)-2-azabicyclo[3.2.2]nonan-2-yl]ethan-1-amine] | – | – | – | – | – | 93.3 | 180 | 8.66 | 1940 | 16800 | – |
